Measurements taken from US11214803B2, “Modulators of YAP1 expression” (Ionis Pharmaceuticals, Inc., priority 2019, dated 2022).

What was measured:
[1] = Tolerability in CD-1 mice, body and organ weights (Example 19); type: in vivo; conditions: male CD-1 mice, 50 mg/kg s.c. twice a week for four weeks (8 treatments), end of study (day 26)
Procedure: Groups of four male CD-1 mice at 4-6 weeks of age (obtained from Charles River) were injected subcutaneously twice a week for four weeks (for a total of 8 treatments) with 50 mg/kg of modified oligonucleotides. One group of male CD-1 mice was injected with PBS. Mice were euthanized on day 26 post start of treatment (24 hrs following the final administration).
Body weights of CD-1 mice were measured at the end of the study, and the average body weight for each group is presented in the table below. Modified oligonucleotides that caused any changes in organ weights outside the expected range for modified oligonucleotides were excluded from further studies.

Yap1 mRNA [2] = experiment: Yap1 mRNA in BICR56 cells, RNA analysis (Example 33); type: cell-based, human; conditions: free uptake, approximately 48 hours
Procedure: Modified oligonucleotides described in the studies above were tested at various doses in squamous cell carcinoma adherent keratinocyte cell line BICR56. A control oligonucleotide 792169 was also tested.
Cultured BICR56 cells at a density of 5000 cells per well were treated using free uptake with modified oligonucleotides diluted to concentrations described in the tables below. After approximately 48 hours, Yap1 mRNA levels were measured as previously described using the Human Yap1 primer-probe set RTS4814. Yap1 mRNA levels were normalized to actin-beta content, as measured by primer probe set RTS5002. Results are presented in the tables below as percent control of the amount of Yap1 mRNA relative to untreated control cells (% UTC).

CAL33 cells = experiment: Cell proliferation assay in CAL33 cells, CellTiter-Glo (Example 36); type: cell-based, human; conditions: free uptake, approximately 144 hours
Procedure: Modified oligonucleotides described in the studies above were tested at various doses in tongue squamous cell carcinoma line CAL33. A control oligonucleotide 792169, described herein above, was also tested.
Cultured CAL33 cells at a density of 1000 cells/well were treated using free uptake with modified oligonucleotides diluted to concentrations described in the tables below. After approximately 144 hours, cell proliferation was measured using the luminescent cell viability CellTiter-Glo® 2.0 Assay (Promega). Results are presented in the tables below as percent control of the amount of luminescence in samples treated with modified oligonucleotides relative to untreated control cells (% UTC).

Yap1 mRNA [3] = experiment: Yap1 mRNA in SCC-9 cells, RNA analysis (Example 40); type: cell-based, human; conditions: free uptake, approximately 48 hours
Procedure: Modified oligonucleotides described in the studies above were tested at various doses in tongue squamous cell carcinoma cell line SCC-9. A control oligonucleotide 792169, described herein above, was also tested.
Cultured SCC-9 cells at a density of 5000 cells per well were treated using free uptake with modified oligonucleotides diluted to concentrations described in the tables below. After approximately 48 hours, Yap1 mRNA levels were measured as previously described using the Human Yap1 primer-probe set RTS4814. Yap1 mRNA levels were normalized to actin-beta content, as measured by primer probe set RTS5002. Results are presented in the tables below as percent control of the amount of Yap1 mRNA relative to untreated control cells (% UTC).

SCC-15 cells = experiment: Cell proliferation assay in SCC-15 cells, CellTiter-Glo (Example 41); type: cell-based, human; conditions: free uptake, approximately 144 hours
Procedure: Modified oligonucleotides described in the studies above were tested at various doses in tongue squamous cell carcinoma cell line SCC-15. A control oligonucleotide 792169, described herein above, was also tested.
Cultured SCC-15 cells at a density of 1000 cells/well were treated using free uptake with modified oligonucleotides diluted to concentrations described in the tables below. After approximately 144 hours, cell proliferation was measured using the luminescent cell viability CellTiter-Glo® 2.0 Assay (Promega). Results are presented in the tables below as percent control of the amount of luminescence in samples treated with modified oligonucleotides relative to untreated control cells (% UTC).

SCC-25 cells = experiment: Cell proliferation assay in SCC-25 cells, CellTiter-Glo (Example 42); type: cell-based, human; conditions: free uptake, approximately 144 hours
Procedure: Modified oligonucleotides described in the studies above were tested at various doses in tongue squamous cell carcinoma cell line SCC-25. A control oligonucleotide 792169, described herein above, was also tested.
Cultured SCC-25 cells at a density of 1000 cells/well were treated using free uptake with modified oligonucleotides diluted to concentrations described in the tables below. After approximately 144 hours, cell proliferation was measured using the luminescent cell viability CellTiter-Glo® 2.0 Assay (Promega). Results are presented in the tables below as percent control of the amount of luminescence in samples treated with modified oligonucleotides relative to untreated control cells (% UTC).

Yap1 mRNA [4] = experiment: Yap1 mRNA in SNU-1076 cells, RNA analysis (Example 45); type: cell-based, human; conditions: free uptake, approximately 48 hours
Procedure: (§1) Modified oligonucleotides described in the studies above were tested at various doses in upper aerodigestive tract/laryngeal squamous cell carcinoma line SNU-1076. A control oligonucleotide 792169, described herein above, was also tested.
Cultured SNU-1076 cells at a density of 5000 cells per well were treated using free uptake with modified oligonucleotides diluted to concentrations described in the tables below. After approximately 48 hours, Yap1 mRNA levels were measured as previously described using the Human Yap1 primer-probe set RTS4814. Yap1 mRNA levels were normalized to actin-beta content, as measured by primer probe set RTS5002. Results are presented in the tables below as percent control of the amount of Yap1 mRNA relative to untreated control cells (% UTC).

SNU-1076 cells = experiment: Cell proliferation assay in SNU-1076 cells, CellTiter-Glo (Example 45); type: cell-based, human; conditions: free uptake, approximately 144 hours
Procedure: as §1
Cultured SNU-1076 cells at a density of 1000 cells/well were treated using free uptake with modified oligonucleotides diluted to concentrations described in the tables below. After approximately 144 hours, cell proliferation was measured using the luminescent cell viability CellTiter-Glo® 2.0 Assay (Promega). Results are presented in the tables below as percent control of the amount of luminescence in samples treated with modified oligonucleotides relative to untreated control cells (% UTC).

Work on “1198440 (AAGTGTATGTCAGAAG; cEt, 2'-MOE, 5-methylcytosine, phosphorothioate modifications, further chemistry not given here) [compound 1198440]” yielded a Kidney weight [1] of 0.46 g, a Liver weight [1] of 1.97 g and a Spleen weight [1] of 0.18 g. For the same substance, the body weight [1] was 35 g, the “human Yap1 mRNA expression” value (Yap1 mRNA [2]; 0.04 μM) was 40 % UTC and the “human Yap1 mRNA expression” value (Yap1 mRNA [2]; 0.2 μM) was 10 % UTC. For the same substance, the “human Yap1 mRNA expression” value (Yap1 mRNA [2]; 1 μM) was 7 % UTC, the “human Yap1 mRNA expression” value (Yap1 mRNA [2]; 5 μM) was 7 % UTC and the “Antiproliferative effect (cell proliferation, luminescence)” value (“Antiproliferative effect” for short) (CAL33 cells; 0.04 μM) was 84 % UTC. The “Antiproliferative effect” value (CAL33 cells; 0.2 μM) was 67 % UTC, the “Antiproliferative effect” value (CAL33 cells; 1 μM) was 58 % UTC and the “Antiproliferative effect” value (CAL33 cells; 5 μM) was 44 % UTC. For the same substance, the “human Yap1 mRNA expression” value (Yap1 mRNA [3]; 0.04 μM) was 53 % UTC, the “human Yap1 mRNA expression” value (Yap1 mRNA [3]; 0.2 μM) was 18 % UTC and the “human Yap1 mRNA expression” value (Yap1 mRNA [3]; 1 μM) was 6 % UTC. The “human Yap1 mRNA expression” value (Yap1 mRNA [3]; 5 μM) was 2 % UTC, the “Antiproliferative effect” value (SCC-15 cells; 0.04 μM) was 72 % UTC and the “Antiproliferative effect” value (SCC-15 cells; 0.2 μM) was 54 % UTC. For the same substance, the “Antiproliferative effect” value (SCC-15 cells; 1 μM) was 42 % UTC, the “Antiproliferative effect” value (SCC-15 cells; 5 μM) was 32 % UTC and the “Antiproliferative effect” value (SCC-25 cells; 0.08 μM) was 56 % UTC. For the same substance, the “Antiproliferative effect” value (SCC-25 cells; 0.4 μM) was 27 % UTC, the “Antiproliferative effect” value (SCC-25 cells; 2 μM) was 20 % UTC and the “Antiproliferative effect” value (SCC-25 cells; 10 μM) was 16 % UTC. The “human Yap1 mRNA expression” value (Yap1 mRNA [4]; 0.04 μM) was 83 % UTC, the “human Yap1 mRNA expression” value (Yap1 mRNA [4]; 0.2 μM) was 43 % UTC and the “human Yap1 mRNA expression” value (Yap1 mRNA [4]; 1 μM) was 11 % UTC. The “human Yap1 mRNA expression” value (Yap1 mRNA [4]; 5 μM) was 3 % UTC, the “Antiproliferative effect” value (SNU-1076 cells; 0.04 μM) was 99 % UTC and the “Antiproliferative effect” value (SNU-1076 cells; 0.2 μM) was 87 % UTC. The “Antiproliferative effect” value (SNU-1076 cells; 1 μM) was 81 % UTC and the “Antiproliferative effect” value (SNU-1076 cells; 5 μM) was 81 % UTC.
